This passage reports Kd results from patent US6344178B1, “Method for the preparation of facial metal tricarbonyl compounds and their use in the labelling of biologically active substrates” (Mallinckrodt Inc., priority 1997, dated 2002).

The subject of the experiment is coloncarcinoma cells HT29. Briefly: Kd on coloncarcinoma cells HT29. It is filed as binding. The protocol: 0.9 ml of [^99mTc(OH2)3(CO)3]^+ as prepared in example 1 is mixed with 0.1 ml of 10^−3M His-Neurotensin(8-13) (HRRPYIIL) and kept in a sealed tube at 75° C. for one hour. After this time the reaction mixture is cooled to room temperature. As evident from reversed phase column HPLC the yield is >95%. The Kd of this compound on coloncarcinoma cells HT29 is 1.0 nM.

Take “HRRPYIIL [His-Neurotensin(8-13), His-Neurotensin(8-13) (HRRPYIIL) labelled with [99mTc(OH2)3(CO)3]+]”: the Kd (usually the constant that tells how readily two partners part at equilibrium) amounted to 1 nM. This counts as single-digit nanomolar.
